Here are results for 29 compounds from US8962681B2, “Use of aminoacetonitrile derivatives against endoparasites” (Zoetis LLC, priority 2011, dated 2015).

The subject of the assay is Dirofilaria immitis microfilariae. Briefly: in vitro microwell motility assay against heartworm microfilariae. The format is cell-based. The conditions noted are these: microfilaria from canine blood, 384 well plate, 72 hours incubation at 37° C. and 5% CO2, LemnaTec Scanalyzer.

For the compound `CC(C#N)(COCc1ccc(C(F)(F)F)cc1)NC(=O)c1ccc(S(F)(F)(F)(F)F)cc1` (centres unmarked) [test compound 84, N-(1-cyano-1-methyl-2-{[4-(trifluoromethyl)benzyl]oxy}ethyl)-4-(pentafluorothio)benzamide], the “ED50 (dose at which the overall microfilaria motility was reduced by 50% compared to that of an untreated control)” value turned out to be 3.3 µM.

As to `CC(C#N)(COc1cc(C#N)ccc1Br)NC(=O)c1ccc(S(F)(F)(F)(F)F)cc1` (centres unmarked) [test compound 27, N-[2-(2-bromo-5-cyanophenoxy)-1-cyano-1-methylethyl]-4-(pentafluorothio)-benzamide], the “ED50 (dose at which the overall microfilaria motility was reduced by 50% compared to that of an untreated control)” value is 3.3 µM.

As for `CC(C#N)(COc1cc(C#N)ccc1Oc1ccc(Cl)cc1Cl)NC(=O)c1ccc(S(F)(F)(F)(F)F)cc1` (centres unmarked) [test compound 65, N-{1-cyano-2-[5-cyano-2-(2,4-dichlorophenoxy)phenoxy]-1-methylethyl}-4-(pentafluorothio)benzamide], the “ED50 (dose at which the overall microfilaria motility was reduced by 50% compared to that of an untreated control)” value amounted to 3.3 µM. Under `CC(C#N)(COc1cc(C#N)ccc1OC(F)(F)F)NC(=O)c1ccc(S(F)(F)(F)(F)F)cc1` (centres unmarked) [test compound 55, N-{1-cyano-2-[5-cyano-2-(trifluoromethoxy)phenoxy]-1-methylethyl}-4-(pentafluorothio)benzamide] stands 10 µM; under `CSc1ccc(COCC(C)(C#N)NC(=O)c2ccc(S(F)(F)(F)(F)F)cc2)cc1` (centres unmarked) [test compound 53, N-(1-cyano-1-methyl-2-{[4-(methylthio)benzyl]oxy}ethyl)-4-(pentafluorothio)benzamide], 10 µM; under `CC(C#N)(COc1cc(C#N)ccc1C(F)(F)F)NC(=O)c1ccc(S(F)(F)(F)(F)F)cc1` (centres unmarked) [test compound 3, N-{1-cyano-2-[5-cyano-2-(trifluoromethyl)phenoxy]-1-methylethyl}-4-(pentafluorothio)benzamide], 10 µM. For `CC(C#N)(COc1ccc(F)cc1Br)NC(=O)c1ccc(S(F)(F)(F)(F)F)cc1` (centres unmarked) [test compound 31, N-[2-(2-bromo-4-fluorophenoxy)-1-cyano-1-methylethyl]-4-(pentafluorothio)-benzamide] the value was 10 µM; for `CC(C#N)(COc1cccc(Cl)c1C#N)NC(=O)c1ccc(S(F)(F)(F)(F)F)cc1` (centres unmarked) [test compound 17, N-[2-(3-chloro-2-cyanophenoxy)-1-cyano-1-methylethyl]-4-(pentafluorothio)-benzamide], 10 µM; for `CC(C#N)(COc1cc(C#N)ccc1Oc1ccc(F)cc1)NC(=O)c1ccc(S(F)(F)(F)(F)F)cc1` (centres unmarked) [test compound 61, N-{1-cyano-2-[5-cyano-2-(4-fluorophenoxy)phenoxy]-1-methylethyl}-4-(pentafluorothio)benzamide], 1 µM.

As to `CC(C#N)(COc1cc(C#N)ccc1Oc1ccc(C(F)(F)F)cc1)NC(=O)c1ccc(S(F)(F)(F)(F)F)cc1` (centres unmarked) [test compound 67, N-(1-cyano-2-{5-cyano-2-[4-(trifluoromethyl)phenoxy]phenoxy}-1-methylethyl)-4-(pentafluorothio)benzamide], the “ED50 (dose at which the overall microfilaria motility was reduced by 50% compared to that of an untreated control)” value is 1 µM. Turning to `COc1c(F)cc(Oc2ccc(C#N)cc2OCC(C)(C#N)NC(=O)c2ccc(S(F)(F)(F)(F)F)cc2)cc1F` (centres unmarked) [test compound 78, N-{1-cyano-2-[5-cyano-2-(3,5-difluoro-4-methoxyphenoxy)phenoxy]-1-methylethyl}-4-(pentafluorothio)benzamide], the “ED50 (dose at which the overall microfilaria motility was reduced by 50% compared to that of an untreated control)” value came out at 1 µM. Take `CC(C#N)(COc1cc(C#N)ccc1Cl)NC(=O)c1ccc(S(F)(F)(F)(F)F)cc1` (centres unmarked) [test compound 4, N-[2-(2-chloro-5-cyanophenoxy)-1-cyano-1-methylethyl]-4-(pentafluorothio)benzamide]: the “ED50 (dose at which the overall microfilaria motility was reduced by 50% compared to that of an untreated control)” value came out at 10 µM. For `CC(C#N)(COc1cc(F)c(F)cc1Br)NC(=O)c1ccc(S(F)(F)(F)(F)F)cc1` (centres unmarked) [test compound 58, N-[2-(2-bromo-4,5-difluorophenoxy)-1-cyano-1-methylethyl]-4-(pentafluorothio)benzamide], the “ED50 (dose at which the overall microfilaria motility was reduced by 50% compared to that of an untreated control)” value came out at 33 µM. Regarding `Cc1ccc(Oc2ccc(C#N)cc2OCC(C)(C#N)NC(=O)c2ccc(S(F)(F)(F)(F)F)cc2)c(Cl)c1` (centres unmarked) [test compound 71, N-{2-[2-(2-chloro-4-methylphenoxy)-5-cyanophenoxy]-1-cyano-1-methylethyl}-4-(pentafluorothio)benzamide], the “ED50 (dose at which the overall microfilaria motility was reduced by 50% compared to that of an untreated control)” value was determined as 1 µM. For `CC(C#N)(COc1ccc(Cl)cc1F)NC(=O)c1ccc(S(F)(F)(F)(F)F)cc1` (centres unmarked) [test compound 20, N-[2-(4-chloro-2-fluorophenoxy)-1-cyano-1-methylethyl]-4-(pentafluorothio)-benzamide] the value was 10 µM. For `CC(C#N)(COc1cc(Cl)ccc1Cl)NC(=O)c1ccc(S(F)(F)(F)(F)F)cc1` (centres unmarked) [test compound 39, N-[1-cyano-2-(2,5-dichlorophenoxy)-1-methylethyl]-4-(pentafluorothio)benzamide] the value was 10 µM. Under `CC(C#N)(COc1cc(Br)cc(C#N)c1)NC(=O)c1ccc(S(F)(F)(F)(F)F)cc1` (centres unmarked) [test compound 33, N-[2-(3-bromo-5-cyanophenoxy)-1-cyano-1-methylethyl]-4-(pentafluorothio)-benzamide] stands 33 µM; under `CC(C#N)(COc1cc(C#N)ccc1Oc1ccc(F)cc1Cl)NC(=O)c1ccc(S(F)(F)(F)(F)F)cc1` (centres unmarked) [test compound 63, N-{2-[2-(2-chloro-4-fluorophenoxy)-5-cyanophenoxy]-1-cyano-1-methylethyl}-4-(pentafluorothio)benzamide], 3.3 µM. Take `COc1ccc(Oc2ccc(C#N)cc2OCC(C)(C#N)NC(=O)c2ccc(S(F)(F)(F)(F)F)cc2)cc1` (centres unmarked) [test compound 66, N-{1-cyano-2-[5-cyano-2-(4-methoxyphenoxy)phenoxy]-1-methylethyl}-4-(pentafluorothio)benzamide]: the “ED50 (dose at which the overall microfilaria motility was reduced by 50% compared to that of an untreated control)” value came out at 3.3 µM. Consider `CC(C#N)(COc1cc(C#N)ccc1Oc1ccc(Cl)cc1F)NC(=O)c1ccc(S(F)(F)(F)(F)F)cc1` (centres unmarked) [test compound 62, N-{2-[2-(4-chloro-2-fluorophenoxy)-5-cyanophenoxy]-1-cyano-1-methylethyl}-4-(pentafluorothio)benzamide], for which the “ED50 (dose at which the overall microfilaria motility was reduced by 50% compared to that of an untreated control)” value is 1 µM. For `CC(C#N)(NC(=O)c1ccc(S(F)(F)(F)(F)F)cc1)C1Cc2cc(C#N)cc(C(F)(F)F)c2O1` (centres unmarked) [test compound 83, N-{1-cyano-1-[5-cyano-7-(trifluoromethyl)-2,3-dihydro-1-benzofuran-2-yl]ethyl}-4-(pentafluorothio)benzamide] the value was 10 µM; for `COc1ccc(Oc2ccc(C#N)cc2OCC(C)(C#N)NC(=O)c2ccc(S(F)(F)(F)(F)F)cc2)c(F)c1F` (centres unmarked) [test compound 76, N-{1-cyano-2-[5-cyano-2-(2,3-difluoro-4-methoxyphenoxy)phenoxy]-1-methylethyl}-4-(pentafluorothio)benzamide], 10 µM. `Cc1cc(C#N)ccc1OCC(C)(C#N)NC(=O)c1ccc(S(F)(F)(F)(F)F)cc1` (centres unmarked) [test compound 40, N-[1-cyano-2-(4-cyano-2-methylphenoxy)-1-methylethyl]-4-(pentafluorothio)-benzamide]: the “ED50 (dose at which the overall microfilaria motility was reduced by 50% compared to that of an untreated control)” value worked out at 10 µM. Under `CC(C#N)(COc1c(F)cc(F)cc1C#N)NC(=O)c1ccc(S(F)(F)(F)(F)F)cc1` (centres unmarked) [test compound 54, N-[1-cyano-2-(2-cyano-4,6-difluorophenoxy)-1-methylethyl]-4-(pentafluorothio)-benzamide] stands 33 µM.

`CC(C#N)(COc1cccc(Cl)c1C(F)(F)F)NC(=O)c1ccc(S(F)(F)(F)(F)F)cc1` (centres unmarked) [test compound 50, N-{2-[3-chloro-2-(trifluoromethyl)phenoxy]-1-cyano-1-methylethyl}-4-(pentafluorothio)benzamide]: the “ED50 (dose at which the overall microfilaria motility was reduced by 50% compared to that of an untreated control)” value was 33 µM.

With `CC(C#N)(COc1cc(C#N)ccc1Oc1ccc(Cl)cc1)NC(=O)c1ccc(S(F)(F)(F)(F)F)cc1` (centres unmarked) [test compound 64, N-{2-[2-(4-chlorophenoxy)-5-cyanophenoxy]-1-cyano-1-methylethyl}-4-(pentafluorothio)benzamide], the “ED50 (dose at which the overall microfilaria motility was reduced by 50% compared to that of an untreated control)” value is 1 µM.

Take `CC(C#N)(COc1cc(C#N)ccc1Cl)NC(=O)c1ccc(S(F)(F)(F)(F)F)cc1` (centres unmarked) [test compound 57, N-[2-(2-chloro-5-cyanophenoxy)-1-cyano-1-methylethyl]-4-(pentafluorothio)-benzamide]: the “ED50 (dose at which the overall microfilaria motility was reduced by 50% compared to that of an untreated control)” value amounted to 10 µM. For `CC(C#N)(COc1ccc(Cl)c(Cl)c1)NC(=O)c1ccc(S(F)(F)(F)(F)F)cc1` (centres unmarked) [test compound 38, N-[1-cyano-2-(3,4-dichlorophenoxy)-1-methylethyl]-4-(pentafluorothio)benzamide] the value was 33 µM; for `CC(C#N)(COc1ccc(-c2cccnc2)cc1C(F)(F)F)NC(=O)c1ccc(S(F)(F)(F)(F)F)cc1` (centres unmarked) [test compound 82, N-{1-cyano-1-methyl-2-[4-pyridin-3-yl-2-(trifluoromethyl)phenoxy]ethyl}-4-(pentafluorothio)benzamide], 10 µM.
